# Several values for one entry are separate records, joined by “and”; a condition that tells them apart may be missing. Equal values may be shown once. Read-outs that look alike come from different tables or passages of the source.
# Legend:
# Assay type in all cases: physicochemical
# [1] = Biphasic four-pH sector dissolution with 1-decanol lipid layer (Pion inForm); details: for Transfer of AD towards the organic layer (1-decanol): pH 4.0 sector
# Description: The third set of measurements were performed using a Pion inForm automated titrator system from Pion (Pion-Inc., Billerica, MA, USA, www.pion-inc.com) with an incorporated UV-Vis spectrophotometer to acquire the spectrophotometric data. The optical system also consisted of a photodiode array detector with a deuterium lamp and included two fiber optic dip probes. The titrator module included a temperature controller (a Peltier device with in-situ thermocouple), pH electrode, an overhead stirrer and motorized dispensers for the automatic delivery of assay titrants and reagents via capillaries. The instrumentation was operated by inForm Control and Assay Designer software (version 1.6.0.0). The Pion inForm system was used for the biphasic dissolution studies. Samples were prepared as described previously, and studies were performed consecutively through the four different pH sectors, with the addition of a lipid layer (1-decanol) in the second sector to mimic the absorption in the GIT. The dissolution media consisted of 40 mL of aqueous solution, which was added automatically to an 80 mL dissolution vessel and brought to 25 °C (±0.1 °C). Once the media were adjusted to the starting pH and temperature, each sample was added automatically, and data collection was started from the point of sample introduction. The lipid layer (30 mL) was added in the second pH sector after the pH was adjusted to 4.0 (see Table S4 for exact experimental details). The two UV optic fiber probes each with a 10mm path length, were used on the inForm platform for quantitating the drug in the aqueous phase and in the lipid layer. Stirring of the solution was continuous at a rate of 100 rpm through the four sectors. Spectral and pH data were collected with a frequency of 30 s over a period of 2 h.
# Contrary to GLpKa, which has a fixed probe with a 10 mm path length that cannot be exchangeable with different path length size tips, Pion inForm is provided with two UV probes, both with a 10 mm path length: a fixed path-length and an exchangeable path-length. These probes were used for the aqueous and the lipid media, respectively. In this way, the UV data collected for the three cocrystals could be quantified using the MECs of orcinol, resorcinol and hydroquinone. Moreover, in the inForm system a greater volume of solution is used (40 mL instead of 15 mL of water used for the GLpKa). Therefore, the signal was not saturated, and the UV spectra for the coformers and the adefovir could be distinguished between them.
# In order to study dissolution under conditions that mimic in vivo conditions more closely than other systems, the final set of experiments was carried out in a biphasic dissolution system. The test consists again in a four-pH sectors experiment, but in this case, 1-decanol was added in the second sector (pH 4.0) to simulate the contact with lipidic membranes. Then, the API concentration was monitored simultaneously in both phases through two different optic fiber probes.
# [2] = Intrinsic dissolution at individual pH sectors (GLpKa, 3 mm disks, 30 min); details: for Dissolution Rate: fit of Noyes–Whitney equation; for % Dissolved at t = 30 min: single-pH sector; for solubility at 30 min: acetate–phosphate buffer with KCl
# [3] = XRPD analysis of the tablet surface after the single-pH dissolution experiments
# Description: X-ray powder diffraction (XRPD) patterns of new cocrystals of AD were measured on a PANalytical (Malvern, UK) X’Pert PRO MPD (transmission configuration with Cu Kα radiation, λ = 1.54187 Å) with a focalizing elliptic mirror and a PIXcel detector and a maximum detector’s active length of 3.347°. Transmission geometry configuration included a convergent beam with a focalizing mirror, a flat sample sandwiched between low absorbing films measuring from 1 to 40° in 2θ, a step size of 0.026° and a measuring time of 8 to 30 min at room temperature (25 °C). Capillary geometry has been used with AD–Resorcinol (Form I) placed in a glass capillary (Lindemman) 0.5 mm in diameter measuring from 2 to 70° in 2θ, with a step size of 0.013° and a total measuring time of 18 h. The powder diffractograms were indexed and the lattice parameters were refined by means of Le Bail fits by means of Dicvol04 [35], and the space group was determined from the systematic absences.
# The first set of studies was performed at different pH sectors (1.5, 4.0, 5.5 and 7.4) which are typically encountered in the gastrointestinal tract (GIT), and individual dissolution rates were determined at each pH sector. To perform these experiments, disks of 3mm diameter containing 6–10 mg of the drug or cocrystal were prepared by applying a constant pressure of 0.1 ton for 2 min with a manual hydraulic tablet press (Applied Measurements Specac Ltd, Orpington UK). The tablet was placed in a holder, and only one side of the tablet was exposed to the dissolution medium. The total exposed surface area was 0.07 cm^2. A total of 1.5 mL of 0.125 M acetate–phosphate buffer at pH 1.6 was introduced into the vial without wetting the tablet surface. The instrument then automatically added 13.5 mL of 0.15 M KCl solution and adjusted the pH to the required value (see Table S2 for exact experimental details). Spectra collection started immediately after. Spectra were recorded every 30 s for 30 min. The medium was stirred at a constant rate. The solid state of the remaining disks was analyzed using XRPD.
# The XRPD analysis of the tablet surface after the dissolution experiments confirms that there is some transformation of the solid form. The highest transformation occurs for AD tablets, where 20% of the initial AD (Form I) is transformed into the dihydrate. This transformation is reproducible, as deduced by the low error bars in the dissolution profiles. In the case of cocrystals, they mainly remain in its original solid form; the 5–10% of the free AD (Form I) observed in the analysis of the tablets could be the result of AD deposition during the experiments since the saturation concentration is reached very quickly, rather than a solid phase transformation in the surface of the tablet.
# [4] = Dissolution in a four-pH sector sequence (pH 1.5 to 7.4, 30 min at each pH, GLpKa)
# Description: A second set of experiments was performed with the same instrument. However, determinations were made in a full sequence of pHs (from 1.5 to 7.4) maintained for 30 min at each individual pH. To change the pH, KOH was added to the medium (Table S3).
# Compared to the single-pH experiments, the four-pH sectors determination provides dynamic information of the dissolution behavior of the compounds along the GIT. Now, the dissolution test starts at pH 1.5, and dissolution is monitored for 30 min. Then, the pH is raised to 4.0, 5.5, and finally, 7.4, monitoring dissolution for 30 min at each pH.
# pKa determination = experiment: pKa determination
# [5] = pH 1.5, SD in parenthesis, n = 3
# [6] = pH 4.0, SD in parenthesis, n = 3
# [7] = pH 5.5, SD in parenthesis, n = 3
# [8] = pH 7.4, SD in parenthesis, n = 3
structure (smiles),measurement,setting,value
CC(C)(C)C(=O)OCOP(=O)(COCCn1cnc2c(N)ncnc21)OCOC(=O)C(C)(C)C.Oc1ccc(O)cc1 [AD–hydroquinone cocrystal],Slope of dissolution profile in the first pH sector,"[1]; pH 1.5, aqueous phase",inferior slope compared to the cocrystals with resorcinol and orcinol
same,Transfer of AD towards the organic layer (1-decanol),[1],slightly slower
CC(C)(C)C(=O)OCOP(=O)(COCCn1cnc2c(N)ncnc21)OCOC(=O)C(C)(C)C.Oc1cccc(O)c1 [AD–Res cocrystal (Form I)],Dissolution Rate,[2]; [5],1015 (6) nmols/min
same,% Dissolved at t = 30 min,[2]; [5],39.3 (1.3) %
same,Dissolution Rate,[2]; [6],63 (2) nmols/min
same,% Dissolved at t = 30 min,[2]; [6],16.1 (2.0) %
same,Dissolution Rate,[2]; [7],19 (1) nmols/min
same,% Dissolved at t = 30 min,[2]; [7],12.2 (2.0) %
same,Dissolution Rate,[2]; [8],15 (1) nmols/min
same,% Dissolved at t = 30 min,[2]; [8],10.9 (2.7) %
same,Final Solid Form on tablet surface after dissolution,[3]; pH 1.5,Cocrystal (Form I) + AD–dihydrate (95%:5%)
same,Final Solid Form on tablet surface after dissolution,[3]; pH 4.0,Cocrystal (Form I) + AD–dihydrate (95%:5%)
same,Final Solid Form on tablet surface after dissolution,[3]; pH 5.5,Cocrystal (Form I) + AD–dihydrate (95%:5%)
same,Final Solid Form on tablet surface after dissolution,[3]; pH 7.4,Cocrystal (Form I) + AD–dihydrate (95%:5%)
same,Transfer of AD towards the organic layer (1-decanol),[1],rapid transfer of AD towards the organic layer
CC(C)(C)C(=O)OCOP(=O)(COCCn1cnc2c(N)ncnc21)OCOC(=O)C(C)(C)C.Cc1cc(O)cc(O)c1 [AD–Orc cocrystal],Dissolution Rate,[2]; [5],626 (40) nmols/min
same,% Dissolved at t = 30 min,[2]; [5],39.2 (1.1) %
same,Dissolution Rate,[2]; [6],147 (47) nmols/min
same,% Dissolved at t = 30 min,[2]; [6],14.7 (1.6) %
same,Dissolution Rate,[2]; [7],17 (1) nmols/min
same,% Dissolved at t = 30 min,[2]; [7],10.6 (2.5) %
same,Dissolution Rate,[2]; [8],17 (3) nmols/min
same,% Dissolved at t = 30 min,[2]; [8],13.1 (3.6) %
same,Final Solid Form on tablet surface after dissolution,[3]; pH 1.5,Cocrystal + AD–dihydrate (90%:10%)
same,Final Solid Form on tablet surface after dissolution,[3]; pH 4.0,Cocrystal + AD–dihydrate (90%:10%)
same,Final Solid Form on tablet surface after dissolution,[3]; pH 5.5,Cocrystal + AD–dihydrate (90%:10%)
same,Final Solid Form on tablet surface after dissolution,[3]; pH 7.4,Cocrystal + AD–dihydrate (90%:10%)
same,Transfer of AD towards the organic layer (1-decanol),[1],rapid transfer of AD towards the organic layer
"CC(C)(C)C(=O)OCOP(=O)(COCCn1cnc2c(N)ncnc21)OCOC(=O)C(C)(C)C [AD, 9-{2-[Bis(pivaloyloxymethoxy)phosphinylmethoxy]ethyl}adenine]",solubility at 30 min,"[2]; aqueous buffer, thermodynamic from solid, pH 1.5, SD in parenthesis, n = 3, read-out: AD Solubility",325 µM
same,solubility at 30 min,"[2]; aqueous buffer, thermodynamic from solid, pH 4.0, SD in parenthesis, n = 3, read-out: AD Solubility, extrapolated (from Equation (1))",139 µM
same,solubility at 30 min,"[2]; aqueous buffer, thermodynamic from solid, pH 5.5, SD in parenthesis, n = 3, read-out: AD Solubility, extrapolated (from Equation (1))",128 µM
same,solubility at 30 min,"[2]; aqueous buffer, thermodynamic from solid, pH 7.4, SD in parenthesis, n = 3, read-out: AD Solubility, extrapolated (from Equation (1))",123 µM
same,solubility at 30 min,"[2]; pH 1.5, read-out: Solubility for AD indicated by the plateaus of the cocrystal profiles",~300 µM
same,Dissolution Rate,[2]; [5],315 (4) nmols/min
same,% Dissolved at t = 30 min,[2]; [5],29.0 (1.0) %
same,Dissolution Rate,[2]; [6],35 (4) nmols/min
same,% Dissolved at t = 30 min,[2]; [6],5.7% and 5.7 (0.4) %
same,Dissolution Rate,[2]; [7],21 (4) nmols/min
same,% Dissolved at t = 30 min,[2]; [7],3.8% and 3.8 (0.6) %
same,Dissolution Rate,[2]; [8],17 (2) nmols/min
same,% Dissolved at t = 30 min,[2]; [8],3.3% and 3.3 (0.4) %
same,Saturation concentration of AD,"[2]; rest of pH values (4.0, 5.5, 7.4), particularly pH 5.5 and 7.4",around 100 μM
same,Share of the initial solid form transformed / other form found on tablet after dissolution,[3]; XRPD of tablet surface,20%
same,Final Solid Form on tablet surface after dissolution,[3]; pH 1.5,Form I + AD–dihydrate (80%:20%)
same,Final Solid Form on tablet surface after dissolution,[3]; pH 4.0,Form I + AD–dihydrate (80%:20%)
same,Final Solid Form on tablet surface after dissolution,[3]; pH 5.5,Form I + AD–dihydrate (80%:20%)
same,Final Solid Form on tablet surface after dissolution,[3]; pH 7.4,Form I + AD–dihydrate (80%:20%)
same,"% of API dissolved, four-pH sector test",[4]; pH 1.5 sector,30%
same,"% of AD in solution, four-pH sector test",[4]; pH 4.0 sector,25%
same,"% of AD in solution, four-pH sector test",[4]; pH 5.5 sector,20%
same,"% of AD in solution, four-pH sector test",[4]; pH 7.4 sector,20%
same,Transfer of AD towards the organic layer (1-decanol),[1],even slower
same,pKa,pKa determination,3.78 ± 0.05
